What was measured:
control oocytes = assay: Two-electrode voltage clamp of control oocytes injected with H2O; type: cell-based, X. laevis; settings: for inward peak current in control oocytes: oocytes injected with 40 nl H2O
[1] = molecular target: human TRPV1 receptor channel (Homo sapiens, UniProt Q8NER1); assay: Two-electrode voltage clamp of capsaicin-induced current in Xenopus oocytes expressing wild type human TRPV1; type: cell-based; settings: for inhibition of capsaicin-induced current: 100 μM gomisin A plus 1 μM capsaicin, voltage ramp
TRPV1 A452Y mutant = TRPV1 A452Y mutant (Homo sapiens, UniProt Q8NER1, A453Y); type: cell-based; settings: holding potential −80 mV
TRPV1 V456A mutant = TRPV1 V456A mutant (Homo sapiens, UniProt Q8NER1, V456A, species not given); type: cell-based; settings: holding potential −80 mV
TRPV1 Y454A mutant = TRPV1 Y454A mutant (Homo sapiens, UniProt Q8NER1, Y455A); type: cell-based; settings: holding potential −80 mV
TRPV1 YNA2 double mutant = TRPV1 YNA2 double mutant (Homo sapiens, UniProt Q8NER1, Y454A, form not given, species not given); type: cell-based; settings: holding potential −80 mV
TRPV1 T468A mutant = TRPV1 T468A mutant (Homo sapiens, UniProt Q8NER1, T469A, species not given); type: cell-based; settings: holding potential −80 mV
TRPV1 N467A mutant = TRPV1 N467A mutant (Homo sapiens, UniProt Q8NER1, form not given, species not given); type: cell-based; settings: holding potential −80 mV
TRPV1 L465A mutant = TRPV1 L465A mutant (Homo sapiens, UniProt Q8NER1, form not given, species not given); type: cell-based; settings: holding potential −80 mV
TRPV1 R455A mutant = TRPV1 R455A mutant (Homo sapiens, UniProt Q8NER1, R456A, species not given); type: cell-based; settings: holding potential −80 mV
TRPV1 Y453A mutant = TRPV1 Y453A mutant (Homo sapiens, UniProt Q8NER1, Y454A, species not given); type: cell-based; settings: holding potential −80 mV
TRPV1 V469A mutant = TRPV1 V469A mutant (Homo sapiens, UniProt Q8NER1, form not given, species not given); type: cell-based; settings: holding potential −80 mV
TRPV1 K466A mutant = TRPV1 K466A mutant (Homo sapiens, UniProt Q8NER1, form not given, species not given); type: cell-based; settings: holding potential −80 mV
Chain of TRPV1 K466A mutant (Q8NER1 1-837 isoform Q8NER1-3, stated change not applied): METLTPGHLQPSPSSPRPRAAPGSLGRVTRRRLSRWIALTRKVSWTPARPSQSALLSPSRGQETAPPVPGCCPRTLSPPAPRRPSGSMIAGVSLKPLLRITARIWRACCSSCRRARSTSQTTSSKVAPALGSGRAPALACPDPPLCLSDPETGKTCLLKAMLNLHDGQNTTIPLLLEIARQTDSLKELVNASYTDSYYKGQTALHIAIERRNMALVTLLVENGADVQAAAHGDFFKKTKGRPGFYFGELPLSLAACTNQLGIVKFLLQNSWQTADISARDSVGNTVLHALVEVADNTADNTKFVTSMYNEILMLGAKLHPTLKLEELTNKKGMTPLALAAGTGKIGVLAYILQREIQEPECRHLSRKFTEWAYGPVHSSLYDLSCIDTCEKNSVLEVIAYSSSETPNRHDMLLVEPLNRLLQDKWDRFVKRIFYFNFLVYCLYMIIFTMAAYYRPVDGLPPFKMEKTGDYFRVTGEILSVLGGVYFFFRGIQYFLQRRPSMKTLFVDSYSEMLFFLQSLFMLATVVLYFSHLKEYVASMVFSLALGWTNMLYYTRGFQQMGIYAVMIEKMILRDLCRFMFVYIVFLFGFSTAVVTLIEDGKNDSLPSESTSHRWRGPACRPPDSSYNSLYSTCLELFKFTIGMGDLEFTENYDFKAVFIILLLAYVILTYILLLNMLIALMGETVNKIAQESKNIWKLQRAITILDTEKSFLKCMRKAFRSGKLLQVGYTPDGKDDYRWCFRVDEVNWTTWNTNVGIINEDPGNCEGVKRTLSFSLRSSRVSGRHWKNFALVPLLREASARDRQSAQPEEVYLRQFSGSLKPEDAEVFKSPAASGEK

Chain of human TRPV1 receptor channel (Q8NER1 whole entry): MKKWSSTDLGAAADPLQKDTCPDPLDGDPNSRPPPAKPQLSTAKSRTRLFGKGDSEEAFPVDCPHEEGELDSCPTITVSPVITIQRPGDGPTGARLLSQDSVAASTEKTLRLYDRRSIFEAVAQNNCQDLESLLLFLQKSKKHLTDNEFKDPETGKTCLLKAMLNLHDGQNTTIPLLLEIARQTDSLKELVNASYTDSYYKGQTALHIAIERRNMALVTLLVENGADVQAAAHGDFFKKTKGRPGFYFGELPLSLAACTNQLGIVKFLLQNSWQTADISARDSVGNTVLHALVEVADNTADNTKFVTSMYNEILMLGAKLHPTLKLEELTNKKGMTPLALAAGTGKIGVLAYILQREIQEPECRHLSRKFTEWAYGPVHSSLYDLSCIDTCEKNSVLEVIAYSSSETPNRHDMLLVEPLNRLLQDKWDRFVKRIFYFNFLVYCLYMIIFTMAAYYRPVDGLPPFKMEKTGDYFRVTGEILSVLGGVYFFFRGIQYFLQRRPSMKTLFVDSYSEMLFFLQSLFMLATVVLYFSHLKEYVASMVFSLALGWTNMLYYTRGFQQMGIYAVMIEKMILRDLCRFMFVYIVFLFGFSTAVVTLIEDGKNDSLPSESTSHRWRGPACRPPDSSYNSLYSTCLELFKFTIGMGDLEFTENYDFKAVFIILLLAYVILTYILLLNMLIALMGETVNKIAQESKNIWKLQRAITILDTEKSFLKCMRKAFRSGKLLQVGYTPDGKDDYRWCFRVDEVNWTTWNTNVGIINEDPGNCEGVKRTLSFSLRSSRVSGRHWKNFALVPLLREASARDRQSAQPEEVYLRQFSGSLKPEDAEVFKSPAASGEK
Chain of TRPV1 V469A mutant (Q8NER1 whole entry, stated change not applied): as the sequence (Q8NER1 whole entry) above
Chain of TRPV1 N467A mutant (Q8NER1 whole entry, stated change not applied): as the sequence (Q8NER1 whole entry) above
Chain of TRPV1 L465A mutant (Q8NER1 whole entry, stated change not applied): as the sequence (Q8NER1 whole entry) above
Chain of TRPV1 R455A mutant (Q8NER1 whole entry R456A): as the sequence (Q8NER1 whole entry) above, with R456A counted along it
Chain of TRPV1 Y453A mutant (Q8NER1 whole entry Y454A): as the sequence (Q8NER1 whole entry) above, with Y454A counted along it
Chain of TRPV1 Y454A mutant (Q8NER1 whole entry Y455A): as the sequence (Q8NER1 whole entry) above, with Y455A counted along it
Chain of TRPV1 V456A mutant (Q8NER1 1-837 isoform Q8NER1-3 V456A): as the sequence (Q8NER1 1-837 isoform Q8NER1-3, stated change not applied) above, with V456A counted along it
Chain of TRPV1 T468A mutant (Q8NER1 whole entry T469A): as the sequence (Q8NER1 whole entry) above, with T469A counted along it
Chain of TRPV1 A452Y mutant (Q8NER1 whole entry A453Y): as the sequence (Q8NER1 whole entry) above, with A453Y counted along it
Chain of TRPV1 YNA2 double mutant (Q8NER1 whole entry Y454A, form open): as the sequence (Q8NER1 whole entry) above, with Y454A counted along it

With `COc1cc(CNC(=O)CCCC/C=C/C(C)C)ccc1O` [capsaicin, reference compound] the “inward peak current in control oocytes” value (control oocytes; 1 μM) was “did not result in any inward peak current”, the “reversal membrane voltage potential of capsaicin-induced inward current” value ([1]; 1 μM capsaicin, ramp −100 to +80 mV) was roughly −10 mV and the “effect of agonist on current” value ([1]; 1 μM, holding potential −80 mV) was “stimulated an inward current”.

With `Oc1cc2c(cc1O)CN(C(=S)NCCc1ccc(Cl)cc1)CCC2` [capsazepine, reference compound] the “effect of antagonist on capsaicin-stimulated inward current” value ([1]; 10 μM capsazepine cotreated with 1 μM capsaicin) was “blocked the capsaicin-stimulated inward current” and the inhibition at 10 µM ([1]; 10 μM capsazepine cotreated with 1 μM capsaicin, −80 mV, read-out: percent inhibition of capsaicin-induced inward current) was 79.5 ± 4.5%.

For gomisin A, the Vmax (TRPV1 A452Y mutant) was 79.2 ± 3.1, the “n (Hill coefficient)” value (TRPV1 A452Y mutant) was 2.2 ± 0.8 and the Vmax (TRPV1 V456A mutant) was 91.5 ± 2.6. The “n (Hill coefficient)” value (TRPV1 V456A mutant) was 1.8 ± 0.8, the Vmax (TRPV1 Y454A mutant) was 59.2 ± 3.0 and the “n (Hill coefficient)” value (TRPV1 Y454A mutant) was 2.2 ± 0.8. The Vmax (TRPV1 YNA2 double mutant) was 17.9 ± 6.5, the Vmax (TRPV1 T468A mutant) was 67.9 ± 1.5 and the “n (Hill coefficient)” value (TRPV1 T468A mutant) was 1.6 ± 0.5. The “inward current in control oocytes on coapplication” value (control oocytes; 10 μM gomisin A coapplied with 1 μM capsaicin, H2O-injected oocytes) was “did not result in an inward current”, the “inward peak current in control oocytes” value (control oocytes; 10 μM) was “did not result in any inward peak current” and the Vmax (TRPV1 N467A mutant) was 24.7 ± 2.0. The “n (Hill coefficient)” value (TRPV1 N467A mutant) was 1.3 ± 0.5, the Vmax (TRPV1 L465A mutant) was 68.3 ± 3.5 and the “n (Hill coefficient)” value (TRPV1 L465A mutant) was 1.8 ± 0.3. The Vmax (TRPV1 R455A mutant) was 64.4 ± 2.6, the “n (Hill coefficient)” value (TRPV1 R455A mutant) was 1.7 ± 0.6 and the Vmax (TRPV1 Y453A mutant) was 38.3 ± 2.4. The “n (Hill coefficient)” value (TRPV1 Y453A mutant) was 1.2 ± 0.5, the Vmax (TRPV1 V469A mutant) was 72.5 ± 5.6 and the “n (Hill coefficient)” value (TRPV1 V469A mutant) was 2.1 ± 0.7. For the same molecule, the “effect of compound alone on currents of human TRPV1 receptor” value ([1]; 100 μM alone, holding potential −80 mV) was “had no effect”, the “percent inhibition of capsaicin-induced inward current” value ([1]; 100 μM gomisin A coapplied with 1 μM capsaicin, −80 mV) was 46.5 ± 4.5% and the “inhibition of capsaicin-induced current” value ([1]; at +80 mV) was 42.6 ± 11.2%. The “inhibition of capsaicin-induced current” value ([1]; at −100 mV) was 71.1 ± 16.2%, the Vmax ([1]; […], inhibition of capsaicin-induced current, holding potential −80 mV) was 72.9 ± 1.0 and the “manner of attenuation of capsaicin-elicited inward peak currents” value ([1]; cotreatment with capsaicin) was “reversible, voltage insensitive, concentration dependent, and noncompetitive”. For the same molecule, the “percent inhibition of capsaicin-induced inward current” value ([1]; preapplication of gomisin A, 1 μM capsaicin) was 48.2 ± 7.2%, the Vmax (TRPV1 K466A mutant) was 64.7 ± 2.1 and the “n (Hill coefficient)” value (TRPV1 K466A mutant) was 2.3 ± 0.5.
